# Measured values as given in US20190166840A1, “SUBSTITUTED PYRAZOLINYL DERIVATIVES, PROCESSES FOR THEIR PREPARATION AND THEIR USE AS HERBICIDES AND/OR PLANT GROWTH REGULATORS” (BAYER CROPSCIENCE AKTIENGESELLSCHAFT, priority 2016, published 2019).
# Legend:
# Format in all cases: in vivo
# Settings in all cases: application rate 1280 g/ha, scored visually after about 3 weeks
# [1] = test system: Viola tricolor; experiment: Pre-emergence herbicidal action, VIOTR
# Text: (§1) Pre-Emergence Herbicidal Action Seeds of mono- and dicotyledonous weed plants or crop plants were placed in sandy loam in wood fibre pots and covered with soil. The formulated compounds of the general formula (I) according to the invention were then applied to the surface of the covering soil in the form of an aqueous suspension or emulsion at an application rate of 600 l of water/ha (converted) with addition of 0.2% wetting agent. After the treatment, the pots were placed in a greenhouse and kept under good growth conditions for the test plants. After about 3 weeks, the effect was scored visually in percent in comparison to untreated controls. For example, 100% activity=the plants have died, 50% herbicidal activity or damage=plants reduced to 50% or plant material reduced by 50%, 0% activity=like control plants. Here, in the biological tests, the compounds of the general formula (I) according to the invention were in each case employed in a formulation, with the numerations of Tables I.1 to I.77 also applying here. Here, the herbicidal action of the compounds of the general formula (I) according to the invention was examined for the following harmful plants: VIOTR=Viola tricolor The respective herbicidal action was in each case determined at the same point in time after application of the formulation in question, i.e. damage of the harmful plant in question in %. Pre-emergence herbicidal action of the compounds of the general formula (I) according to the invention: […]
# [2] = test system: Matricaria inodora (=Tripleurospermum maritimum subsp. inodorum); experiment: Pre-emergence herbicidal action, MATIN
# Text: as §1, with “MATIN=Matricaria inodora (=Tripleurospermum maritimum subsp. inodorum)” for “VIOTR=Viola tricolor”
# [3] = test system: Abutilon theophrasti; experiment: Pre-emergence herbicidal action, ABUTH
# Text: as §1, with “ABUTH=Abutilon theophrasti” for “VIOTR=Viola tricolor”
# [4] = test system: Setaria viridis; experiment: Pre-emergence herbicidal action, SETVI
# Text: as §1, with “SETVI=Setaria viridis” for “VIOTR=Viola tricolor”
# [5] = test system: Hordeum murinum; experiment: Pre-emergence herbicidal action, HORMU
# Text: as §1, with “HORMU=Hordeum murinum” for “VIOTR=Viola tricolor”
SMILES,"Pre-emergence herbicidal action VIOTR, damage of the harmful plant [1]","Pre-emergence herbicidal action MATIN, damage of the harmful plant [2]","Pre-emergence herbicidal action ABUTH, damage of the harmful plant [3]","Pre-emergence herbicidal action SETVI, damage of the harmful plant [4]","Pre-emergence herbicidal action HORMU, damage of the harmful plant [5]"
CC1=C(C)C(O)N(C2=NN(c3ccccn3)C(C)(C)C2)C1=O (stereo not drawn) [I.2-132],80%,0%,70%,40%,0%
CC1=C(C)C(O)N(C2=NN(c3ccccc3)C(C(F)(F)F)C2)C1=O (stereo not drawn) [I.2-1413],100%,100%,0%,70%,60%
CCC(=O)OC1C(C)=C(C)C(=O)N1C1=NN(c2ccccn2)C(C)(C)C1 (stereo not drawn) [I.23-132],70%,40%,0%,0%,20%
CCC(=O)OC1C(C)=C(C)C(=O)N1C1=NN(c2ccccc2)CC1 (stereo not drawn) [I.23-621],70%,50%,0%,50%,0%
CCC(=O)OC1C(C)=C(C)C(=O)N1C1=NN(c2ccccc2)C(C(F)(F)F)C1 (stereo not drawn) [I.23-1413],100%,70%,0%,40%,30%
CCC(=O)OC1C(C)=C(Cl)C(=O)N1C1=NN(C)C(c2ccccc2)C1 (stereo not drawn) [I.24-1126],10%,90%,0%,0%,20%
